These results are taken from patent publication US20130337052A1, “System and Method of Reducing Impairment of Alertness, Concentration, Motivation, and Creativity Caused by Medication” (priority 2012, published 2013).

Structures are written as SMILES.

One series deals with CB2 receptors (Homo sapiens, UniProt P34972). The following applies: relative to THC; cited from earlier work.
Another series has as its target CB1 receptors (Homo sapiens, UniProt P21554). The following applies: relative to THC; cited from earlier work.
For series [1] the following is noted: patients received up to 210 milligrams per day; cited from earlier work.
Series [2] is described as follows: Side effects reported by patients using a medication containing THC. It counts as in vivo, human. The following applies: e.g. Marinol. The text has this:
Patients using cannabinoid medications 10 prescribed for the treatment of symptoms such as pain and experiencing the undesirable side effects of the cannabinoid medications may provide relief through the administration of lithium compounds 30. […] Patients also reported a lack of motivation and a reduction in creativity while taking the medication. As a result, the patients have been unable or unwilling to perform ordinary tasks, such as, e.g., tasks associated with the patient's employment. However, upon treatment with lithium compounds 30, the alertness, concentration, motivation, and creativity of the patients were restored. As a result, the patients were able to continue to work productively while using the cannabinoid-based medication.

For series [3] the following is noted: lithium citrate syrup compared to lithium carbonate tablets; cited from earlier work.
The conditions of series [4]: 150 milligrams per day; cited from earlier work.

Sequence of CB1 receptors (P21554 whole entry): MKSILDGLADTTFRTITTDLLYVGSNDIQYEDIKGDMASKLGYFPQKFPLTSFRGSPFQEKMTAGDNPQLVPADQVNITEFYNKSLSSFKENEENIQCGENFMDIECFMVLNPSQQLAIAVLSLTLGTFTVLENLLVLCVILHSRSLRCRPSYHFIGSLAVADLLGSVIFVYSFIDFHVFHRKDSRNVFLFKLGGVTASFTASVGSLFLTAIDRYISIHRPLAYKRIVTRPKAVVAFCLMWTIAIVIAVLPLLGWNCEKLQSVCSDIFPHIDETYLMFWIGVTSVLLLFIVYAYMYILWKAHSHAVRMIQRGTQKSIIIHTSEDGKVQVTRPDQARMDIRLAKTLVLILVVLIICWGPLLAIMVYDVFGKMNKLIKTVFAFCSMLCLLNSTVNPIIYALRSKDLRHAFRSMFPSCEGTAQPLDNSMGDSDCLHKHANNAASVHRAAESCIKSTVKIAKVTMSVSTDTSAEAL
Sequence of CB2 receptors (P34972 whole entry): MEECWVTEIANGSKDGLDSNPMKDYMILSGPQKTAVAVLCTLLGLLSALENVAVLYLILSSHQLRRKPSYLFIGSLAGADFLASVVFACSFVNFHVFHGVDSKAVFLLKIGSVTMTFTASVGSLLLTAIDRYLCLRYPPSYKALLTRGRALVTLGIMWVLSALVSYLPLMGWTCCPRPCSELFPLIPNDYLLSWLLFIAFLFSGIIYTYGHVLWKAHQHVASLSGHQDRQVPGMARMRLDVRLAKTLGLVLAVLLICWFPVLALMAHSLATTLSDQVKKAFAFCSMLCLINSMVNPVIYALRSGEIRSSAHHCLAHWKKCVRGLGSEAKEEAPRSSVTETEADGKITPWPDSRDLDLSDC

`CCCCCc1cc(O)c2c(c1)OC(C)(C)c1ccc(C)cc1-2` [CBN, cannabinol]: at CB2 receptors, the “agonist effect on the CB2 receptor compared with THC” value is “weaker agonist effect”. On CB1 receptors, the “agonist effect on the CB1 receptor compared with THC” value is “weaker agonist effect”. As to `CCCCCc1cc(O)c2c(c1)OC(C)(C)[C@@H]1CCC(C)=C[C@@H]21` [THC, (−)-trans-Δ9-tetrahydrocannabinol], in series [1], the “toxic effects in clinical studies” value was “without toxic effects”. In addition, the “side effects experienced by patients” value in series [2] is “difficulty staying awake and maintaining concentration”. With `O=C([O-])CC(O)(CC(=O)[O-])C(=O)[O-].[Li+].[Li+].[Li+]` [lithium citrate], the “rate at which lithium enters the body” value in series [3] is “more rapidly”. For `O=C([O-])c1cc(=O)[nH]c(=O)[nH]1.[Li+]` [lithium orotate], the “effect in the treatment of alcohol addiction” value in series [4] is recorded as “beneficial”.
